From the NIST ThermoML archive (doi:10.1021/je700751a)

Experiment: osmotic coefficient (dimensionless); mn = molality of the nth substance listed, in mol/kg
Settings: Liquid, isopiestic method

O=C([O-])[C@H](O)[C@@H](O)C(=O)[O-].[K+].[K+] [dipotassium L-tartrate] + O
Settings	osmotic coefficient
298.15 K, m1 = 0	1
298.15 K, m1 = 0.3635	0.713
298.15 K, m1 = 0.604	0.683
298.15 K, m1 = 0.7532	0.675
298.15 K, m1 = 1.285	0.677
298.15 K, m1 = 1.702	0.691
298.15 K, m1 = 1.861	0.691
298.15 K, m1 = 2.212	0.704
298.15 K, m1 = 2.379	0.711
298.15 K, m1 = 2.466	0.705
298.15 K, m1 = 2.837	0.719
298.15 K, m1 = 3.236	0.728
298.15 K, m1 = 4.168	0.759
298.15 K, m1 = 4.379	0.77
298.15 K, m1 = 4.631	0.771
298.15 K, m1 = 4.845	0.775
298.15 K, m1 = 6.72	0.805
298.15 K, m1 = 6.869	0.804
308.15 K, m1 = 0	1
308.15 K, m1 = 0.3282	0.721
308.15 K, m1 = 0.7152	0.706
308.15 K, m1 = 0.9198	0.702
308.15 K, m1 = 1.135	0.692
308.15 K, m1 = 1.327	0.694
308.15 K, m1 = 1.854	0.705
308.15 K, m1 = 2.215	0.712
308.15 K, m1 = 2.842	0.725
308.15 K, m1 = 3.585	0.751
308.15 K, m1 = 4.177	0.764
308.15 K, m1 = 5.047	0.78
308.15 K, m1 = 5.836	0.793
308.15 K, m1 = 6.435	0.806
318.15 K, m1 = 0	1
318.15 K, m1 = 0.2468	0.741
318.15 K, m1 = 0.3446	0.745
318.15 K, m1 = 0.5504	0.721
318.15 K, m1 = 0.6181	0.712
318.15 K, m1 = 0.9764	0.707
318.15 K, m1 = 1.276	0.702
318.15 K, m1 = 1.536	0.712
318.15 K, m1 = 1.995	0.723
318.15 K, m1 = 2.646	0.737
318.15 K, m1 = 2.934	0.751
318.15 K, m1 = 4.154	0.777
318.15 K, m1 = 4.813	0.791
318.15 K, m1 = 5.749	0.804
